“Also recorded” adds a separate entry of the source.
Experiments:
epithelial cells (A549) = assay: Fas-induced apoptosis, epithelial cells; format: cell-based, human; conditions: A549, antibody 136 μg/ml with Fas ligand
Method: A: Normal human lung fibroblast or distal lung epithelial cells were serum-starved overnight and then incubated with indicated concentration of IGF-1R antibody or IGFBP-3 overnight. B: A549 cells were serum-starved and incubated with IGF-1R antibody (136 μg/ml) with or without the indicated concentration of Fas ligand. Apoptosis was measured by Cell Death ELISA-plus ELISA (Roche Applied Science) per the manufacturer's directions. All experiments were done in triplicate and repeated at least twice. Apoptosis index is defined as the ratio of experimental condition OD405 nm: control (media alone) OD405 nm.
Primary normal human lung fibroblasts (Clonetics, Cambrex Bioscience, Rockland, Me.), primary distal lung human epithelial cells (Clonetics) or A549 (American Type Culture Collection, Manassas, Va.) were seeded in a 96-well tissue culture plate (2×10^4 cells/well) overnight and serum-starved for 24 hours. […] After 48 hours, apoptosis was measured. To prevent detached cells from being aspirated, plates were centrifuged at 200×g for 10 minutes, and apoptosis was measured using the Cell Death Detection ELISA-plus System (Roche Applied Science, Penzberg, Germany), which detects cytosolic histone-complexed DNA fragments. […]

[1] = tested on: lung cells (TUNEL positive); assay: TUNEL assay on lung sections after bleomycin; format: in vivo, mice
Method: For TUNEL assay, tissue sections were deparaffinized using standard protocols and permeabilised with proteinase K (10 μg/ml in 10 mM Tris-HCl) for 30 mins at 37° C. Non-specific binding sites were blocked with 1 mg/ml BSA in 50 mM Tris-HCl for 10 mins at 37° C. TUNEL positive cells were detected with Fluorescein In Situ Cell Death Detection Kit (Roche). Nuclei were counterstained with DAPI. To quantitate apoptosis, at least 2 mice per timepoint were examined and a blinded observer counted number of TUNEL positive cells and DAPI positive cells in 4 independent fields/mouse. At least 500 cells were analyzed per condition.

IGF-1R = biological target: T1, IGF-1R (Mus musculus, UniProt Q60751); assay: IGF-1R expression in tissues after systemic A12 (IHC, Western blot); format: in vivo, mice
T1 construct: Western blot analysis for IGF-1R on lungs and spleen lysates at day 14 post-bleomycin; from tissue; host or cells: mouse lung, spleen, kidney
Method: ICR male mice are anesthetized under pentobarbital (60 mg/kg, i.v.) anesthesia, the cervical region is shaved and the skin is incised for about 4 mm from under the larynx region along the median line. Next, the muscle layer covering upper trachea is peeled off to expose the trachea. Using a micro-syringe, physiological saline or bleomycin hydrochloride (0.03 mg/animal, manufactured by Nippon Kayaku) is administered tracheally (50 μl/animal) from the tracheal smooth muscle region between cricoid cartilage. After the administration, the incised region is closed and antibiotics are administered into the thigh intramuscularly in order to prevent infection. IGF-1R inhibitor, e.g., antibody to IGF-1 receptor (A12). The A12 antibody was administered intraperitoneally at the time of bleomycin administration and subsequently 2-3× per week at a dose of 40 mg/kg (initial experiments involved dosing 3× per week, and later experiments dosed 2× per week; results were the same). […] Controls included bleomycin-treated animals receiving saline injection in place of A12 antibody. […] Lung hydroxyproline content is measured as a measure of fibrosis. Changes in lung tissue histology are also monitored. […] Bronchoalveolar lavage fluid (BALF) total cell count was determined by trypan blue exclusion and cell differential was determined on Diff quick (Dade Behring Ag, Düdingen, Switzerland) stained cytospins. […]

T1 sequence (Q60751 31-1373): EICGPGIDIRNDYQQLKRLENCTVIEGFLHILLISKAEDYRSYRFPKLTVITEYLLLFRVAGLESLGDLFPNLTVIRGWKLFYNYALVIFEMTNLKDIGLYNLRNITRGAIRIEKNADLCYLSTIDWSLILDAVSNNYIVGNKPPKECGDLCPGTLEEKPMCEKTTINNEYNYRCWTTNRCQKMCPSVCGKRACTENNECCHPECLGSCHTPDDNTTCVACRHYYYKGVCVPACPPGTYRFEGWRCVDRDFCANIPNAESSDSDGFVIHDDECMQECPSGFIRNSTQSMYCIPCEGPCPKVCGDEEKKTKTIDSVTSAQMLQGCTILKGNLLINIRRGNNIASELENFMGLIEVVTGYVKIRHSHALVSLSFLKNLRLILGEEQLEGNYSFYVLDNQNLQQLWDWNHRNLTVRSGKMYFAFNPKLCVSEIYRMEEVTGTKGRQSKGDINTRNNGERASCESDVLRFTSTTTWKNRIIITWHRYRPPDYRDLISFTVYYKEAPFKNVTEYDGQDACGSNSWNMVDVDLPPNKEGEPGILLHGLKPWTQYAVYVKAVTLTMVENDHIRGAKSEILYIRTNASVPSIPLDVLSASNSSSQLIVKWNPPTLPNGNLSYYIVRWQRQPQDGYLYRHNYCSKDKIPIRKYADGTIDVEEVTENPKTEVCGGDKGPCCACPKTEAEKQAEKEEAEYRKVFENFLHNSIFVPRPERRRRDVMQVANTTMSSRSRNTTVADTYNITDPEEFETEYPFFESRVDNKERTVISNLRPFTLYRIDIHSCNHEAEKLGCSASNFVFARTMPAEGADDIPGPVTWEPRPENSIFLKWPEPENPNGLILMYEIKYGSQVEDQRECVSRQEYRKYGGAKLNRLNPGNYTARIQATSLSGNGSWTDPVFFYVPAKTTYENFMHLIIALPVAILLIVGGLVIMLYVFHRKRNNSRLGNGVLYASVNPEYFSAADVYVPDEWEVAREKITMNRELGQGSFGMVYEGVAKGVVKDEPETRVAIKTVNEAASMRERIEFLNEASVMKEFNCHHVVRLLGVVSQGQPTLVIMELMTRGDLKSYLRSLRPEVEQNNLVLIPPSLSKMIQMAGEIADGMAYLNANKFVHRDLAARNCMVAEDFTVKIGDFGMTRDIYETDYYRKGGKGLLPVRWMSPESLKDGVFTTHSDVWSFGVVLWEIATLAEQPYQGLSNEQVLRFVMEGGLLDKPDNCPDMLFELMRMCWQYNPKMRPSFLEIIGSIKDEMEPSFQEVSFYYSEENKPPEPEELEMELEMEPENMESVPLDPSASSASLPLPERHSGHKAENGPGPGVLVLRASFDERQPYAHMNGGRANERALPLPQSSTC

Substance: A12: Function blocking antibody to the human type 1 IGF receptor, gift from ImClone Systems
- Fas-induced apoptosis of epithelial cells (epithelial cells (A549)): did not alter Fas-induced apoptosis
- TUNEL-positive (apoptotic) cells in lung ([1]; d14, vs vehicle): increase in TUNEL-positive cells
- TUNEL-positive (apoptotic) cells in lung ([1]; day 28, vs vehicle): fewer apoptotic cells
- IGF-1R expression in lungs (IGF-1R; day 7 post-bleomycin, vs saline): marked decrease in IGF-1R expression; also recorded: decreased IGF-1R expression
- IGF-1R in the kidney (Western blotting) (IGF-1R; systemic effect of antibody): down-regulation of IGF-1R in the kidney

Reference: patent US8178091B2, “Compositions and methods for the treatment of respiratory disorders” (University of Washington, priority 2007, dated 2012)
